Reference: PubChem BioAssay AID2060616 (Molecular Pharmacology Branch, DTP, NCI, 2025)

System: 377384-186-R-J1-PDC complex spheroid viability
Test: Anticancer human tumor 377384-186-R-J1-PDC patient-derived pancreatic carcinoma cell line growth inhibition [CLK]
Conditions: for IC50: curve of first compound; for viability, T/C: stronger effect = lower value
Method in brief: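 Patient-derived tumor cells grown as complex spheroids with HUVEC endothelial cells and mesenchymal stem cells, treated with drug combinations. Concentrations descend in half-log steps from near clinical Cmax, or from 10 microM if Cmax unknown.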

[1] = second compound 0.0316 µM, first compound 0.0316 µM
[2] = second compound 0.0316 µM, first compound 0.1 µM
[3] = second compound 0.0316 µM, first compound 0.316 µM
[4] = second compound 0.0316 µM, first compound 1 µM
[5] = second compound 0.0316 µM, first compound 3.16 µM
[6] = second compound 0.0316 µM, first compound 10 µM
[7] = second compound 0.1 µM, first compound 0.0316 µM
[8] = second compound 0.1 µM, first compound 0.1 µM
[9] = second compound 0.1 µM, first compound 0.316 µM
[10] = second compound 0.1 µM, first compound 1 µM
[11] = second compound 0.1 µM, first compound 3.16 µM
[12] = second compound 0.1 µM, first compound 10 µM
[13] = second compound 0.316 µM, first compound 0.0316 µM
[14] = second compound 0.316 µM, first compound 0.1 µM
[15] = second compound 0.316 µM, first compound 0.316 µM
[16] = second compound 0.316 µM, first compound 1 µM
[17] = second compound 0.316 µM, first compound 3.16 µM
[18] = second compound 0.316 µM, first compound 10 µM
[19] = second compound 1 µM, first compound 0.0316 µM
[20] = second compound 1 µM, first compound 0.1 µM
[21] = second compound 1 µM, first compound 0.316 µM
[22] = second compound 1 µM, first compound 1 µM
[23] = second compound 1 µM, first compound 3.16 µM
[24] = second compound 1 µM, first compound 10 µM
[25] = second compound 3.16 µM, first compound 0.0316 µM
[26] = second compound 3.16 µM, first compound 0.1 µM
[27] = second compound 3.16 µM, first compound 0.316 µM
[28] = second compound 3.16 µM, first compound 1 µM
[29] = second compound 3.16 µM, first compound 3.16 µM
[30] = second compound 3.16 µM, first compound 10 µM
[31] = second compound 10 µM, first compound 0.0316 µM
[32] = second compound 10 µM, first compound 0.1 µM
[33] = second compound 10 µM, first compound 0.316 µM
[34] = second compound 10 µM, first compound 1 µM
[35] = second compound 10 µM, first compound 3.16 µM
[36] = second compound 10 µM, first compound 10 µM
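Note: spheroids exposed to agents for 7 days before reading.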
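Throughout, for viability, T/C: luminescence signal used as a stand-in for viable cells.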

Compound: C#Cc1c(F)ccc2cc(O)cc(-c3ncc4c(N5CC6CCC(C5)N6)nc(OCC56CCCN5CC(F)C6)nc4c3F)c12 (stereo not drawn) + CN1CCN(c2cc(C(=O)Nc3cc4cc(-c5cnn(C)c5)ccc4cn3)ccn2)CC1
- IC50 (second compound 0.0316 µM): < 31.6 nM
- IC50 (second compound 0.1 µM): < 31.6 nM
- IC50 (second compound 0.316 µM): < 31.6 nM
- IC50 (second compound 1 µM): < 31.6 nM
- IC50 (second compound 3.16 µM): < 31.6 nM
- IC50 (second compound 10 µM): < 31.6 nM
- viability, T/C [1]: 23.7%
- viability, T/C [2]: 9.22%
- viability, T/C [3]: 5.47%
- viability, T/C [4]: 3.59%
- viability, T/C [5]: 1.91%
- viability, T/C [6]: 2.78%
- viability, T/C [7]: 17.5%
- viability, T/C [8]: 9.27%
- viability, T/C [9]: 3.82%
- viability, T/C [10]: 2.55%
- viability, T/C [11]: 1.86%
- viability, T/C [12]: 1.3%
- viability, T/C [13]: 6.63%
- viability, T/C [14]: 2.9%
- viability, T/C [15]: 2.56%
- viability, T/C [16]: 1.32%
- viability, T/C [17]: 1.33%
- viability, T/C [18]: 0.82%
- viability, T/C [19]: 0.45%
- viability, T/C [20]: 0.37%
- viability, T/C [21]: 0.27%
- viability, T/C [22]: 0.32%
- viability, T/C [23]: 0.34%
- viability, T/C [24]: 0.4%
- viability, T/C [25]: 0.26%
- viability, T/C [26]: 0.6%
- viability, T/C [27]: 0.24%
- viability, T/C [28]: 0.33%
- viability, T/C [29]: 0.38%
- viability, T/C [30]: 0.56%
- viability, T/C [31]: 0.1%
- viability, T/C [32]: 0.21%
- viability, T/C [33]: 0.19%
- viability, T/C [34]: 0.33%
- viability, T/C [35]: 0.22%
- viability, T/C [36]: 0.49%

Compound: CC(CO)NC(=O)c1cc(-c2ccc(Cl)cc2)nn(-c2cnn(C)c2)c1=O (stereo not drawn) + CN1CCN(c2cc(C(=O)Nc3cc4cc(-c5cnn(C)c5)ccc4cn3)ccn2)CC1
- IC50 (second compound 0.0316 µM): > 10000 nM
- IC50 (second compound 0.1 µM): > 10000 nM
- IC50 (second compound 0.316 µM): < 31.6 nM
- IC50 (second compound 1 µM): < 31.6 nM
- IC50 (second compound 3.16 µM): < 31.6 nM
- IC50 (second compound 10 µM): < 31.6 nM
- viability, T/C [1]: 104%
- viability, T/C [2]: 118%
- viability, T/C [3]: 101%
- viability, T/C [4]: 93.5%
- viability, T/C [5]: 82.3%
- viability, T/C [6]: 51.5%
- viability, T/C [7]: 107%
- viability, T/C [8]: 105%
- viability, T/C [9]: 85.5%
- viability, T/C [10]: 101%
- viability, T/C [11]: 77.7%
- viability, T/C [12]: 57%
- viability, T/C [13]: 33.6%
- viability, T/C [14]: 30.6%
- viability, T/C [15]: 27.8%
- viability, T/C [16]: 31.3%
- viability, T/C [17]: 31.9%
- viability, T/C [18]: 29.1%
- viability, T/C [19]: 1.54%
- viability, T/C [20]: 1.76%
- viability, T/C [21]: 1.91%
- viability, T/C [22]: 1.77%
- viability, T/C [23]: 2.49%
- viability, T/C [24]: 2.71%
- viability, T/C [25]: 0.34%
- viability, T/C [26]: 1%
- viability, T/C [27]: 0.42%
- viability, T/C [28]: 0.4%
- viability, T/C [29]: 0.66%
- viability, T/C [30]: 0.95%
- viability, T/C [31]: 0.55%
- viability, T/C [32]: 0.43%
- viability, T/C [33]: 0.69%
- viability, T/C [34]: 0.78%
- viability, T/C [35]: 0.94%
- viability, T/C [36]: 0.42%

Compound: CC(Nc1ccc2c(c1)OCCn1cc(N3C(=O)OCC3C(F)F)nc1-2)C(N)=O (stereo not drawn) + CN1CCN(c2cc(C(=O)Nc3cc4cc(-c5cnn(C)c5)ccc4cn3)ccn2)CC1
- IC50 (second compound 0.0316 µM): 5170 nM
- IC50 (second compound 0.1 µM): 1460 nM
- IC50 (second compound 0.316 µM): < 31.6 nM
- IC50 (second compound 1 µM): < 31.6 nM
- IC50 (second compound 3.16 µM): < 31.6 nM
- IC50 (second compound 10 µM): < 31.6 nM
- viability, T/C [1]: 85.8%
- viability, T/C [2]: 83.1%
- viability, T/C [3]: 72.2%
- viability, T/C [4]: 69.4%
- viability, T/C [5]: 53.4%
- viability, T/C [6]: 43.4%
- viability, T/C [7]: 90%
- viability, T/C [8]: 79.3%
- viability, T/C [9]: 50.6%
- viability, T/C [10]: 57.4%
- viability, T/C [11]: 50.5%
- viability, T/C [12]: 39.4%
- viability, T/C [13]: 23.5%
- viability, T/C [14]: 23.6%
- viability, T/C [15]: 18.5%
- viability, T/C [16]: 19.8%
- viability, T/C [17]: 18.3%
- viability, T/C [18]: 18.4%
- viability, T/C [19]: 2.08%
- viability, T/C [20]: 1.88%
- viability, T/C [21]: 2.17%
- viability, T/C [22]: 1.6%
- viability, T/C [23]: 1.66%
- viability, T/C [24]: 2.21%
- viability, T/C [25]: 0.29%
- viability, T/C [26]: 0.96%
- viability, T/C [27]: 0.62%
- viability, T/C [28]: 0.3%
- viability, T/C [29]: 0.47%
- viability, T/C [30]: 0.64%
- viability, T/C [31]: 0.32%
- viability, T/C [32]: 1.36%
- viability, T/C [33]: 0.49%
- viability, T/C [34]: 0.37%
- viability, T/C [35]: 0.69%
- viability, T/C [36]: 0.37%

Compound: COc1c(OCCCN2CCOCC2)ccc2c3n(c(=NC(=O)c4cnc(N)nc4)nc12)CCN3 + CN1CCN(c2cc(C(=O)Nc3cc4cc(-c5cnn(C)c5)ccc4cn3)ccn2)CC1
- IC50 (second compound 0.0316 µM): 41.8 nM
- IC50 (second compound 0.1 µM): 38.9 nM
- IC50 (second compound 0.316 µM): < 3.16 nM
- IC50 (second compound 1 µM): < 3.16 nM
- IC50 (second compound 3.16 µM): < 3.16 nM
- IC50 (second compound 10 µM): < 3.16 nM
- viability, T/C (second compound 0.0316 µM, first compound 0.00316 µM): 103%
- viability, T/C (second compound 0.0316 µM, first compound 0.01 µM): 72.8%
- viability, T/C [1]: 55.2%
- viability, T/C [2]: 37.8%
- viability, T/C [3]: 24.9%
- viability, T/C [4]: 15%
- viability, T/C (second compound 0.1 µM, first compound 0.00316 µM): 89.9%
- viability, T/C (second compound 0.1 µM, first compound 0.01 µM): 77.2%
- viability, T/C [7]: 48%
- viability, T/C [8]: 37.6%
- viability, T/C [9]: 25.3%
- viability, T/C [10]: 14.5%
- viability, T/C (second compound 0.316 µM, first compound 0.00316 µM): 31.7%
- viability, T/C (second compound 0.316 µM, first compound 0.01 µM): 22.1%
- viability, T/C [13]: 18.7%
- viability, T/C [14]: 16.6%
- viability, T/C [15]: 14.2%
- viability, T/C [16]: 11.9%
- viability, T/C (second compound 1 µM, first compound 0.00316 µM): 2.68%
- viability, T/C (second compound 1 µM, first compound 0.01 µM): 2.64%
- viability, T/C [19]: 1.8%
- viability, T/C [20]: 1.85%
- viability, T/C [21]: 2.19%
- viability, T/C [22]: 2.43%
- viability, T/C (second compound 3.16 µM, first compound 0.00316 µM): 0.37%
- viability, T/C (second compound 3.16 µM, first compound 0.01 µM): 0.47%
- viability, T/C [25]: 0.92%
- viability, T/C [26]: 0.45%
- viability, T/C [27]: 0.44%
- viability, T/C [28]: 1.06%
- viability, T/C (second compound 10 µM, first compound 0.00316 µM): 0.5%
- viability, T/C (second compound 10 µM, first compound 0.01 µM): 0.28%
- viability, T/C [31]: 0.28%
- viability, T/C [32]: 0.32%
- viability, T/C [33]: 0.33%
- viability, T/C [34]: 0.34%
